Reference: ChEMBL document CHEMBL1201862, “PubChem BioAssay data set” (2004)
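Cultured in 96-well plates, cells were exposed to test compound for 48 hours across five concentrations. GI50 is the concentration that inhibits growth by half.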 Activity calls are given as the source filed them. Rule as the data show it: active = GI50 up to about 1.1 µM and inactive = higher.

Tests used:
Assay in all cases: DTP human tumour cell line panel, 48 h
DLD-1 = tested on: DLD-1
HOP-18 = tested on: HOP-18
DMS-114 = tested on: DMS-114
M19-MEL = tested on: M19-MEL
XF498 = tested on: XF498
RXF 631 = tested on: RXF 631
SNB-78 = tested on: SNB-78
LXFL 529 = tested on: LXFL 529
DMS-273 = tested on: DMS-273

SMILES | GI50 (DLD-1) | GI50 (HOP-18) | GI50 (DMS-114) | GI50 (M19-MEL) | GI50 (XF498) | GI50 (RXF 631) | GI50 (SNB-78) | GI50 (LXFL 529) | GI50 (DMS-273)
Cc1c[nH]c2c1C13CC1CN(C(=O)c1cc4cc(NC(=O)c5cc6ccccc6o5)ccc4[nH]1)C3=CC2=O (stereo not given) | < 0.001 µM (active) | < 0.001 µM (active) | < 0.001 µM (active) | < 0.001 µM (active) | < 0.001 µM (active) | < 0.001 µM (active) | < 0.001 µM (active) | – | –
COc1ccc(/C(=C/n2ccnc2)C(=O)c2ccc(OC)c(OC)c2)cc1 | > 100 µM (inactive) | – | > 100 µM (inactive) | > 100 µM (inactive) | > 100 µM (inactive) | – | – | > 100 µM (inactive) | > 100 µM (inactive)
CCOc1ccccc1/N=N/c1c(-c2ccccc2)nn(C(=O)CC(=O)Nc2cccc(Cl)c2)c1-c1ccccc1 | 20.4 µM (inactive) | > 100 µM (inactive) | 15.9 µM (inactive) | 76.6 µM (inactive) | 62.4 µM (inactive) | – | 59.3 µM (inactive) | 39.5 µM (inactive) | 22.5 µM (inactive)
CCOC(=O)C1=C(Nc2ccc(Cl)c(Cl)c2)OC/C1=N\NS(=O)(=O)c1ccc(C)cc1 | 39.8 µM (inactive) | 27.5 µM (inactive) | 56.4 µM (inactive) | 94.6 µM (inactive) | 94 µM (inactive) | 29.6 µM (inactive) | > 100 µM (inactive) | 46.9 µM (inactive) | –
Oc1ccc2occ3c2c1CCC3 | > 100 µM (inactive) | > 100 µM (inactive) | 81.8 µM (inactive) | > 100 µM (inactive) | 67 µM (inactive) | > 100 µM (inactive) | > 100 µM (inactive) | > 100 µM (inactive) | > 100 µM (inactive)
O=C1c2cccc([N+](=O)[O-])c2C(=O)c2nccnc21 | 2.84 µM (inactive) | 1.69 µM (inactive) | 0.982 µM (active) | 0.122 µM (active) | – | – | 3.09 µM (inactive) | – | 3.5 µM (inactive)
Cc1ccc(-n2cc(/C(N)=N/O)c3ccccc3c2=O)cc1 | – | – | > 100 µM (inactive) | > 100 µM (inactive) | > 100 µM (inactive) | – | – | > 100 µM (inactive) | > 100 µM (inactive)
Clc1ccc2c(Cl)ncnc2c1I | > 100 µM (inactive) | – | 54.3 µM (inactive) | > 100 µM (inactive) | 91.6 µM (inactive) | – | – | 34 µM (inactive) | > 100 µM (inactive)
CCCN(CCC)c1c([N+](=O)[O-])cc(S(N)(=O)=O)cc1[N+](=O)[O-] [ORYZALIN] | 19.1 µM (inactive) | 19.2 µM (inactive) | 19 µM (inactive) | 20.2 µM (inactive) | 16.6 µM (inactive) | 18.6 µM (inactive) | – | 16.1 µM (inactive) | 18.8 µM (inactive)
CCCCCCCCCCCCCCCC/C(C(=O)OC)=C(/O)C(=O)OCC | > 100 µM (inactive) | > 100 µM (inactive) | > 100 µM (inactive) | > 100 µM (inactive) | – | – | > 100 µM (inactive) | > 100 µM (inactive) | > 100 µM (inactive)
CCC12C=CCN3CCC4(C(=C(C(=O)OC)[C@@H]1O)Nc1ccccc14)C32 (stereo not given in full) | 1.67 µM (inactive) | 1.71 µM (inactive) | 1.69 µM (inactive) | 1.74 µM (inactive) | 1.63 µM (inactive) | – | 2.8 µM (inactive) | 1.66 µM (inactive) | 1.69 µM (inactive)
C=CCN1/C(=C2\SC(=S)N(c3ccc(C)cc3)C2=O)Sc2c1ncn(C)c2=O | > 100 µM (inactive) | – | > 100 µM (inactive) | > 100 µM (inactive) | 73.5 µM (inactive) | – | 90.6 µM (inactive) | 59.7 µM (inactive) | > 100 µM (inactive)
C(CCC[Te][Te]CCCCCCOC1CCCCO1)CCOC1CCCCO1 (stereo not given) | 15.7 µM (inactive) | 19.3 µM (inactive) | 3.89 µM (inactive) | – | 10.2 µM (inactive) | – | 17.1 µM (inactive) | 9.02 µM (inactive) | –
CCCN(CCCC(NC(C)=O)C(=O)NCc1ccccc1)C(=O)N(CCCl)N=O (stereo not given) | 14.5 µM (inactive) | 22.5 µM (inactive) | 14.4 µM (inactive) | 12.2 µM (inactive) | 9.89 µM (inactive) | 17.4 µM (inactive) | 15.4 µM (inactive) | 18 µM (inactive) | 4.52 µM (inactive)
CCOC(=O)Cc1nc(/C(C#N)=C/c2ccco2)[nH]c(=O)c1C#N | > 100 µM (inactive) | > 100 µM (inactive) | – | > 100 µM (inactive) | – | – | 37.8 µM (inactive) | > 100 µM (inactive) | > 100 µM (inactive)
O=C1C(c2ccccc2)=C(c2ccccc2)C(c2ccc(Sc3ccc(C4=C(c5ccccc5)C(=O)C(c5ccccc5)=C4c4ccccc4)cc3)cc2)=C1c1ccccc1 | > 100 µM (inactive) | – | > 100 µM (inactive) | > 100 µM (inactive) | > 100 µM (inactive) | > 100 µM (inactive) | 87.5 µM (inactive) | – | > 100 µM (inactive)
N/C(=N\O)N/N=C/c1ccc(O)c(O)c1 | > 100 µM (inactive) | > 100 µM (inactive) | > 100 µM (inactive) | > 100 µM (inactive) | > 100 µM (inactive) | > 100 µM (inactive) | > 100 µM (inactive) | > 100 µM (inactive) | 34.5 µM (inactive)
C/C(=N/N(C=O)C[n+]1ccccc1)C(CN(CC(C)C)CC(C)C)C(=O)Nc1ccc(C)cc1C (stereo not given) | > 100 µM (inactive) | – | 70.8 µM (inactive) | – | – | > 100 µM (inactive) | – | – | –
Cc1ccc(C)c(NC(=O)C(=O)Nn2c(S)nc3ccccc3c2=O)c1 | > 100 µM (inactive) | > 100 µM (inactive) | > 100 µM (inactive) | – | – | > 100 µM (inactive) | > 100 µM (inactive) | > 100 µM (inactive) | > 100 µM (inactive)
O=c1[nH]c2ccccc2cc1C(Cl)=C(Cl)Cl | > 100 µM (inactive) | > 100 µM (inactive) | > 100 µM (inactive) | > 100 µM (inactive) | > 100 µM (inactive) | – | > 100 µM (inactive) | > 100 µM (inactive) | > 100 µM (inactive)
CCN(CC)CCOc1ccc(CCc2cc(OC)c(OC)c(OC)c2)cc1 | 64.1 µM (inactive) | > 100 µM (inactive) | 21.9 µM (inactive) | 23.8 µM (inactive) | 23.7 µM (inactive) | 53.5 µM (inactive) | > 100 µM (inactive) | 35.1 µM (inactive) | 18.2 µM (inactive)
COc1ccccc1/C=C(\NC(=O)c1ccccc1)c1nc2ccccc2[nH]1 | 37.3 µM (inactive) | 46.3 µM (inactive) | 29.4 µM (inactive) | 38.3 µM (inactive) | 36.1 µM (inactive) | > 100 µM (inactive) | 53.3 µM (inactive) | 29.9 µM (inactive) | –
Cc1c(Cl)cccc1NC(=O)C(=O)c1c(O)c2ccc(O)cc2oc1=O | > 100 µM (inactive) | > 100 µM (inactive) | > 100 µM (inactive) | > 100 µM (inactive) | > 100 µM (inactive) | – | > 100 µM (inactive) | > 100 µM (inactive) | > 100 µM (inactive)
